In US20250353891A1 (MEDIMMUNE LIMITED, priority 2022, published 2025):
Starred links: 1 amine or outer side, 2 acyl side, 3 side chain; linkers in the order of their positions; H or OH if unused. Non-standard residues stand in square brackets, D forms with d. Residues, ends and D or L forms follow the SMILES beside them. Groups on a side chain read outwards from the residue. *: point of attachment. C20 diacid = O=C(O)CCCCCCCCCCCCCCCCCCC(=O)*; C18 diacid = O=C(O)CCCCCCCCCCCCCCCCC(=O)*; γGlu = O=C(O)[C@H](CCC(=O)[*:2])N[*:1]; αMeF = C[C@](N)(Cc1ccccc1)C(=O)O; AEEA = NCCOCCOCC(=O)O; Aib = CC(C)(N)C(=O)O

Tests used:
[1] = biological target: human GLP-1 receptor (hGLP-1R) (Homo sapiens, UniProt P43220); test: cAMP production (HTRF) in CHO cells expressing hGLP-1R; format: cell-based; design: expressed in transfected cells; details: for EC50: Table 6, peptides modified at position 17, cAMP in CHO hGLP-1R cells, geometric mean, read-out: hGLP-1R EC50; for % Relative Potency Ratio: Table 6, % GLP-1R activity relative to GLP-1 / % GlucR activity relative to glucagon
Chain of human GLP-1 receptor (hGLP-1R) (P43220 24-463): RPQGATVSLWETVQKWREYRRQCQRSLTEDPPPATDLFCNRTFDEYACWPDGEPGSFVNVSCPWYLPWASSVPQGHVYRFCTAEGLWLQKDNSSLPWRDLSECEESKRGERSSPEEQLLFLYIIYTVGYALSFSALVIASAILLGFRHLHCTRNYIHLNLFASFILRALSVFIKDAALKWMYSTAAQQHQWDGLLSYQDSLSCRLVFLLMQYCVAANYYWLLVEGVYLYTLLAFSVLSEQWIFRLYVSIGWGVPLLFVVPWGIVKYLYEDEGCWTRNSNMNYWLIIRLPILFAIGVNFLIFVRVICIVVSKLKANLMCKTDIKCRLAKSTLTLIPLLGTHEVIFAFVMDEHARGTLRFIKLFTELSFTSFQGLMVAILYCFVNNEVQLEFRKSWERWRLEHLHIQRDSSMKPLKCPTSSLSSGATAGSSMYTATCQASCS
In short: (§1)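 Cells were resuspended in assay buffer at batch-optimized density, typically 1×10^5 cells/mL for hGLP-1R and 2×10^5 cells/mL for hGCGR. After 30 min incubation at room temperature with compound, cAMP was measured by two-step HTRF. EC50 values came from 4-parameter logistic fits of % Delta F.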

[2] = biological target: human glucagon receptor (hGCGR) (Homo sapiens, UniProt P47871); test: cAMP production (HTRF) in CHO cells expressing hGCGR; format: cell-based; design: expressed in transfected cells; details: Table 6, peptides modified at position 17; cAMP in CHO hGCGR cells; geometric mean; read-out: hGluc-R EC50
Chain of human glucagon receptor (hGCGR) (P47871 26-477): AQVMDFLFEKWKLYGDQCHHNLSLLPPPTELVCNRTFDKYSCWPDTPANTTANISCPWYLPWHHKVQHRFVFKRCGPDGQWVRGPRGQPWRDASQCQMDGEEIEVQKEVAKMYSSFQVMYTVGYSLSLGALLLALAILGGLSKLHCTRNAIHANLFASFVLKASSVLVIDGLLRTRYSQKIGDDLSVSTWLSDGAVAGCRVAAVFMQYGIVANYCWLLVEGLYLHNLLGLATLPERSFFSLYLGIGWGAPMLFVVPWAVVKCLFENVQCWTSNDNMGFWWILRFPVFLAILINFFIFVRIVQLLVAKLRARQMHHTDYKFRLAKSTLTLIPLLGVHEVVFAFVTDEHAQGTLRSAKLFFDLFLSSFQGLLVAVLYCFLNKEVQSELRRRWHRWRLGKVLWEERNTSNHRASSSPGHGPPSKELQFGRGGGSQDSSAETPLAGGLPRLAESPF
In short: as §1

With CC(C)C[C@H](NC(=O)[C@H](Cc1c[nH]c2ccccc12)NC(=O)[C@H](CCC(N)=O)NC(=O)[C@@H](NC(=O)[C@H](Cc1ccccc1)NC(=O)[C@H](CC(=O)O)NC(=O)[C@H](CCC(N)=O)NC(=O)[C@H](C)NC(=O)[C@H](CCCNC(=N)N)NC(=O)[C@H](CCCCNC(=O)COCCOCCNC(=O)COCCOCCNC(=O)CC[C@H](NC(=O)CC[C@H](NC(=O)CCCCCCCCCCCCCCCCCCC(=O)O)C(=O)O)C(=O)O)NC(=O)[C@@H](NC(=O)[C@H](CC(=O)O)NC(=O)[C@H](CC(C)C)NC(=O)[C@](C)(Cc1ccccc1)NC(=O)[C@H](CCCCN)NC(=O)[C@H](CO)NC(=O)[C@@H](NC(=O)[C@H](CC(=O)O)NC(=O)[C@H](CO)NC(=O)[C@@H](NC(=O)[C@H](Cc1ccccc1)NC(=O)[C@@H](NC(=O)CNC(=O)[C@H](CCC(N)=O)NC(=O)C(C)(C)NC(=O)[C@@H](N)Cc1c[nH]cn1)[C@@H](C)O)[C@@H](C)O)C(C)C)[C@@H](C)O)C(C)C)C(=O)N[C@@H](CC(C)C)C(=O)N[C@@H](CCC(=O)O)C(=O)NC(C)(C)C(=O)NCC(N)=O [Peptide 469] (H-H[Aib]QGTFTSDVSK[αMeF]LDTK([AEEA-AEEA-γGlu-γGlu-C20 diacid])RAQDFVQWLLE[Aib]G-NH2) the EC50 [1] was 0.255 nM, the “% Relative Potency Ratio” value [1] was 4.2 and the EC50 [2] was 0.538 nM.
CC(C)C[C@H](NC(=O)[C@H](Cc1c[nH]c2ccccc12)NC(=O)[C@H](CCC(N)=O)NC(=O)[C@@H](NC(=O)[C@H](Cc1ccccc1)NC(=O)[C@H](CC(=O)O)NC(=O)[C@H](CCCNC(=N)N)NC(=O)[C@H](C)NC(=O)[C@H](CCCNC(=N)N)NC(=O)[C@H](CCCCNC(=O)COCCOCCNC(=O)COCCOCCNC(=O)CC[C@H](NC(=O)CCCCCCCCCCCCCCCCCCC(=O)O)C(=O)O)NC(=O)[C@H](CCCCN)NC(=O)[C@H](CC(=O)O)NC(=O)[C@H](CC(C)C)NC(=O)[C@](C)(Cc1ccccc1)NC(=O)[C@H](CCCCN)NC(=O)[C@H](CO)NC(=O)[C@@H](NC(=O)[C@H](CC(=O)O)NC(=O)[C@H](CO)NC(=O)[C@@H](NC(=O)[C@H](Cc1ccccc1)NC(=O)[C@@H](NC(=O)CNC(=O)[C@H](CCC(N)=O)NC(=O)C(C)(C)NC(=O)[C@@H](N)Cc1c[nH]cn1)[C@@H](C)O)[C@@H](C)O)C(C)C)C(C)C)C(=O)N[C@@H](CC(C)C)C(=O)NC(C)(C)C(=O)N[C@@H](CCC(=O)O)C(N)=O [Peptide 470] (H-H[Aib]QGTFTSDVSK[αMeF]LDKK([AEEA-AEEA-γGlu-C20 diacid])RARDFVQWLL[Aib]E-NH2; N-terminus assumed) was tested, and the EC50 [1] was 0.0559 nM, the “% Relative Potency Ratio” value [1] was 1.1 and the EC50 [2] was 0.0303 nM.
CC(C)C[C@H](NC(=O)[C@H](Cc1c[nH]c2ccccc12)NC(=O)[C@H](CCC(N)=O)NC(=O)[C@@H](NC(=O)[C@H](Cc1ccccc1)NC(=O)[C@H](CC(=O)O)NC(=O)[C@H](CCCNC(=N)N)NC(=O)[C@H](C)NC(=O)[C@H](CCCNC(=N)N)NC(=O)[C@H](CCCCNC(=O)COCCOCCNC(=O)COCCOCCNC(=O)CC[C@H](NC(=O)CCCCCCCCCCCCCCCCCCC(=O)O)C(=O)O)NC(=O)[C@H](CCCNC(=N)N)NC(=O)[C@H](CC(=O)O)NC(=O)[C@H](CC(C)C)NC(=O)[C@](C)(Cc1ccccc1)NC(=O)[C@H](CCCCN)NC(=O)[C@H](CO)NC(=O)[C@@H](NC(=O)[C@H](CC(=O)O)NC(=O)[C@H](CO)NC(=O)[C@@H](NC(=O)[C@H](Cc1ccccc1)NC(=O)[C@@H](NC(=O)CNC(=O)[C@H](CCC(N)=O)NC(=O)C(C)(C)NC(=O)[C@@H](N)Cc1c[nH]cn1)[C@@H](C)O)[C@@H](C)O)C(C)C)C(C)C)C(=O)N[C@@H](CC(C)C)C(=O)NC(C)(C)C(=O)N[C@@H](CCC(=O)O)C(N)=O [Peptide 471] was tested, and the EC50 [1] was 0.102 nM, the “% Relative Potency Ratio” value [1] was 1.2 and the EC50 [2] was 0.0636 nM.
In the case of CC(C)C[C@H](NC(=O)[C@H](Cc1c[nH]c2ccccc12)NC(=O)[C@H](CCC(N)=O)NC(=O)[C@@H](NC(=O)[C@H](Cc1ccccc1)NC(=O)[C@H](CC(=O)O)NC(=O)[C@H](CCCNC(=N)N)NC(=O)[C@H](C)NC(=O)[C@H](CCCNC(=N)N)NC(=O)[C@H](CCCCNC(=O)COCCOCCNC(=O)COCCOCCNC(=O)CC[C@H](NC(=O)CCCCCCCCCCCCCCCCC(=O)O)C(=O)O)NC(=O)[C@H](CCCNC(=N)N)NC(=O)[C@H](CC(=O)O)NC(=O)[C@H](CC(C)C)NC(=O)[C@](C)(Cc1ccccc1)NC(=O)[C@H](CCCCN)NC(=O)[C@H](CO)NC(=O)[C@@H](NC(=O)[C@H](CC(=O)O)NC(=O)[C@H](CO)NC(=O)[C@@H](NC(=O)[C@H](Cc1ccccc1)NC(=O)[C@@H](NC(=O)CNC(=O)[C@H](CCC(N)=O)NC(=O)C(C)(C)NC(=O)[C@@H](N)Cc1c[nH]cn1)[C@@H](C)O)[C@@H](C)O)C(C)C)C(C)C)C(=O)N[C@@H](CC(C)C)C(=O)NC(C)(C)C(=O)N[C@@H](CCC(=O)O)C(N)=O [Peptide 473] (H-H[Aib]QGTFTSDVSK[αMeF]LDRK([AEEA-AEEA-γGlu-C18 diacid])RARDFVQWLL[Aib]E-NH2; N-terminus assumed), the EC50 [1] is reported as 0.0115 nM, the “% Relative Potency Ratio” value [1] is reported as 2.4 and the EC50 [2] is reported as 0.0141 nM.
With CC(C)C[C@H](NC(=O)[C@H](CC(C)C)NC(=O)[C@H](Cc1c[nH]c2ccccc12)NC(=O)[C@H](CCC(N)=O)NC(=O)[C@@H](NC(=O)[C@H](Cc1ccccc1)NC(=O)[C@H](CC(=O)O)NC(=O)[C@H](CCCNC(=N)N)NC(=O)[C@H](C)NC(=O)[C@H](CCCNC(=N)N)NC(=O)[C@H](CCCCNC(=O)COCCOCCNC(=O)COCCOCCNC(=O)CC[C@H](NC(=O)CCCCCCCCCCCCCCCCC(=O)O)C(=O)O)NC(=O)[C@@H](NC(=O)[C@H](CC(=O)O)NC(=O)[C@H](CC(C)C)NC(=O)[C@](C)(Cc1ccccc1)NC(=O)[C@H](CCCCN)NC(=O)[C@H](CO)NC(=O)[C@@H](NC(=O)[C@H](CC(=O)O)NC(=O)[C@H](CO)NC(=O)[C@@H](NC(=O)[C@H](Cc1ccccc1)NC(=O)[C@@H](NC(=O)CNC(=O)[C@H](CCC(N)=O)NC(=O)C(C)(C)NC(=O)[C@@H](N)Cc1c[nH]cn1)[C@@H](C)O)[C@@H](C)O)C(C)C)[C@@H](C)O)C(C)C)C(=O)N[C@@H](C)C(=O)NC(C)(C)C(=O)NCC(N)=O [Peptide 474] (H-H[Aib]QGTFTSDVSK[αMeF]LDTK([AEEA-AEEA-γGlu-C18 diacid])RARDFVQWLLA[Aib]G-NH2; N-terminus assumed) the EC50 [1] was 0.00804 nM, the “% Relative Potency Ratio” value [1] was 14.0 and the EC50 [2] was 0.0569 nM.
With CC(C)C[C@H](NC(=O)[C@H](CC(C)C)NC(=O)[C@H](Cc1c[nH]c2ccccc12)NC(=O)[C@H](CCC(N)=O)NC(=O)[C@@H](NC(=O)[C@H](Cc1ccccc1)NC(=O)[C@H](CC(=O)O)NC(=O)[C@H](CCCNC(=N)N)NC(=O)[C@H](C)NC(=O)[C@H](CCCNC(=N)N)NC(=O)[C@H](CCCCNC(=O)COCCOCCNC(=O)COCCOCCNC(=O)CC[C@H](NC(=O)CCCCCCCCCCCCCCCCCCC(=O)O)C(=O)O)NC(=O)[C@@H](NC(=O)[C@H](CC(=O)O)NC(=O)[C@H](CC(C)C)NC(=O)[C@](C)(Cc1ccccc1)NC(=O)[C@H](CCCCN)NC(=O)[C@H](CO)NC(=O)[C@@H](NC(=O)[C@H](CC(=O)O)NC(=O)[C@H](CO)NC(=O)[C@@H](NC(=O)[C@H](Cc1ccccc1)NC(=O)[C@@H](NC(=O)CNC(=O)[C@H](CCC(N)=O)NC(=O)C(C)(C)NC(=O)[C@@H](N)Cc1c[nH]cn1)[C@@H](C)O)[C@@H](C)O)C(C)C)[C@@H](C)O)C(C)C)C(=O)N[C@@H](C)C(=O)NC(C)(C)C(=O)NCC(N)=O [Peptide 475] (H-H[Aib]QGTFTSDVSK[αMeF]LDTK([AEEA-AEEA-γGlu-C20 diacid])RARDFVQWLLA[Aib]G-NH2) the EC50 [1] was 0.00675 nM, the “% Relative Potency Ratio” value [1] was 18.0 and the EC50 [2] was 0.0615 nM.
In the case of CC(C)C[C@H](NC(=O)[C@H](CC(C)C)NC(=O)[C@H](Cc1c[nH]c2ccccc12)NC(=O)[C@H](CCCNC(=N)N)NC(=O)[C@@H](NC(=O)[C@H](Cc1ccccc1)NC(=O)[C@H](CC(=O)O)NC(=O)[C@H](CCC(N)=O)NC(=O)[C@H](C)NC(=O)[C@H](CCCNC(=N)N)NC(=O)[C@H](CCCCNC(=O)COCCOCCNC(=O)COCCOCCNC(=O)CC[C@H](NC(=O)CCCCCCCCCCCCCCCCC(=O)O)C(=O)O)NC(=O)[C@@H](NC(=O)[C@H](CC(=O)O)NC(=O)[C@H](CC(C)C)NC(=O)[C@](C)(Cc1ccccc1)NC(=O)[C@H](CCCCN)NC(=O)[C@H](CO)NC(=O)[C@@H](NC(=O)[C@H](CC(=O)O)NC(=O)[C@H](CO)NC(=O)[C@@H](NC(=O)[C@H](Cc1ccccc1)NC(=O)[C@@H](NC(=O)CNC(=O)[C@H](CCC(N)=O)NC(=O)C(C)(C)NC(=O)[C@@H](N)Cc1c[nH]cn1)[C@@H](C)O)[C@@H](C)O)C(C)C)[C@@H](C)O)C(C)C)C(=O)N[C@@H](C)C(=O)NC(C)(C)C(=O)NCC(N)=O [Peptide 476] (H-H[Aib]QGTFTSDVSK[αMeF]LDTK([AEEA-AEEA-γGlu-C18 diacid])RAQDFVRWLLA[Aib]G-NH2), the EC50 [1] is reported as 0.0573 nM, the “% Relative Potency Ratio” value [1] is reported as 3.6 and the EC50 [2] is reported as 0.104 nM.
CC(C)C[C@H](NC(=O)[C@H](Cc1c[nH]c2ccccc12)NC(=O)[C@H](CCCNC(=N)N)NC(=O)[C@@H](NC(=O)[C@H](Cc1ccccc1)NC(=O)[C@H](CC(=O)O)NC(=O)[C@H](CCC(N)=O)NC(=O)[C@H](C)NC(=O)[C@H](CCCNC(=N)N)NC(=O)[C@H](CCCCNC(=O)COCCOCCNC(=O)COCCOCCNC(=O)CC[C@H](NC(=O)CCCCCCCCCCCCCCCCC(=O)O)C(=O)O)NC(=O)[C@@H](NC(=O)[C@H](CC(=O)O)NC(=O)[C@H](CC(C)C)NC(=O)[C@](C)(Cc1ccccc1)NC(=O)[C@H](CCCCN)NC(=O)[C@H](CO)NC(=O)[C@@H](NC(=O)[C@H](CC(=O)O)NC(=O)[C@H](CO)NC(=O)[C@@H](NC(=O)[C@H](Cc1ccccc1)NC(=O)[C@@H](NC(=O)CNC(=O)[C@H](CCC(N)=O)NC(=O)C(C)(C)NC(=O)[C@@H](N)Cc1c[nH]cn1)[C@@H](C)O)[C@@H](C)O)C(C)C)[C@@H](C)O)C(C)C)C(=O)N[C@@H](CC(C)C)C(=O)N[C@@H](CCC(=O)O)C(=O)NC(C)(C)C(=O)N[C@@H](CCCCN)C(N)=O [Peptide 478] (H-H[Aib]QGTFTSDVSK[αMeF]LDTK([AEEA-AEEA-γGlu-C18 diacid])RAQDFVRWLLE[Aib]K-NH2) was tested, and the EC50 [1] was 0.00918 nM, the “% Relative Potency Ratio” value [1] was 40.9 and the EC50 [2] was 0.19 nM.
